Values after ≈ are worked out from the molar mass of the structure shown. Active and inactive are the calls of the source. The calls are words filed in the database; no cut-off is given here.
Key:
[1] = Destabilization of dimyristoyl phosphatidylethanolamine membrane; format: physicochemical
[2] = Induction of dimyristoyl phosphatidylethanolamine membrane lysis assessed as calcein leakage at 250 to 500 uM by spectrofluorometric analysis; format: physicochemical
[3] = Induction of dimyristoyl phosphatidylglycerol membrane lysis assessed as calcein leakage by spectrofluorometric analysis; format: physicochemical
[4] = tested on: Escherichia coli; test: Antimicrobial activity against Escherichia coli; format: functional
[5] = Induction of dimyristoyl phosphatidylethanolamine membrane lysis assessed as calcein leakage at 1 mM by spectrofluorometric analysis; format: physicochemical; conditions: 1000 µM
[6] = Induction of dimyristoyl phosphatidylglycerol membrane lysis assessed as calcein leakage at 1 mM by spectrofluorometric analysis relative to control; format: physicochemical; conditions: 1000 µM
[7] = Induction of dimyristoyl phosphatidylglycerol membrane lysis assessed as calcein leakage at 250 uM to 1 mM by spectrofluorometric analysis; format: physicochemical
[8] = tested on: Staphylococcus aureus; test: Antimicrobial activity against Staphylococcus aureus; format: functional
[9] = tested on: Escherichia coli; test: Antimicrobial activity against Escherichia coli up to 2 mM; format: functional, organism-based
[10] = Destabilization of dimyristoyl phosphatidylglycerol membrane; format: physicochemical
[11] = tested on: Staphylococcus aureus; test: Antimicrobial activity against Staphylococcus aureus up to 2 mM; format: functional, organism-based

Activity [1] | Activity [2] | Activity [3] | MIC [4] [µM] | Activity [5] | Activity [6] [%] | Activity [7] | MIC [8] [µM] | Activity [10] | Compound | Activity [9] | Activity [11]
Active | Not Active | Dose-dependent effect | 1000 (≈ 1300 µg/mL) | Active | 69 | Active | 1000 (≈ 1300 µg/mL) | – | CC(C)c1ccccc1N(C)C(=O)N(C)c1cccc(N(C)C(=O)N(C)c2cccc(N(C)C(=O)N(C)c3cccc(N(C)C(=O)N(C)c4cccc(N(C)C(=O)N(C)c5cccc(N(C)C(=O)N(C)c6cccc(N(C)C(=O)N(C)c7ccccc7C(C)C)c6)c5)c4)c3)c2)c1 | – | –
Not Active | Not Active | Dose-dependent effect | – | Active | – | Active | – | Active | CC(C)c1ccccc1N(C)C(=O)N(C)c1ccccc1C(C)C | inactive | inactive
Active | Not Active | Dose-dependent effect | 1000 (≈ 811 µg/mL) | Active | 61 | Active | 1000 (≈ 811 µg/mL) | – | CC(C)c1ccccc1N(C)C(=O)N(C)c1cccc(N(C)C(=O)N(C)c2cccc(N(C)C(=O)N(C)c3cccc(N(C)C(=O)N(C)c4ccccc4C(C)C)c3)c2)c1 | – | –
